From PMC5148701 (Journal of medicinal chemistry, 2016)
Read-outs that look alike come from different tables or passages of the source.

Experiments:
hD2L receptors = hD2L receptors (Homo sapiens, UniProt P14416); assay: D2R Gi/o-mediated cAMP inhibition assay; type: cell-based; conditions: for activity in Gi/o signaling (in words) / decrease of potency in Gi/o pathway compared to compound 1: cAMP inhibition assay; for Emax: HEK-293T
D2L receptors = D2L receptors (Homo sapiens, UniProt P14416); assay: D2R β-arrestin-2 recruitment Tango assay; type: cell-based; conditions: for Emax: HTLA, read-out: β-arrestin Emax (%); for EC50: β-arrestin EC50 (nM), HTLA cells
Chain of D2L receptors (P14416 whole entry): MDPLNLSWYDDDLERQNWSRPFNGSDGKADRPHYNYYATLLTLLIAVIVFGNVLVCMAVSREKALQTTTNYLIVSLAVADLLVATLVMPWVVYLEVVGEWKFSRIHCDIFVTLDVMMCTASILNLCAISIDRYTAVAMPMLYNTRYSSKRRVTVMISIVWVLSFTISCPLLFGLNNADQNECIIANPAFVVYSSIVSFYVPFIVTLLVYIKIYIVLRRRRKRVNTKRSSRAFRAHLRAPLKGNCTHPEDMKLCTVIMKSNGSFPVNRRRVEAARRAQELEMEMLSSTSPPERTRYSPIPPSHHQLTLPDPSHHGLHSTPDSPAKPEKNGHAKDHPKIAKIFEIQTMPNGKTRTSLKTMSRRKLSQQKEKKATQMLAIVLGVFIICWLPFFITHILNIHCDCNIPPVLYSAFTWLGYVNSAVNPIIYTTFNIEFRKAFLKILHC

[1] = read-out: cAMP Emax (%), HEK293T cells, GloSensor-22F, normalized to maximum cAMP inhibition by quinpirole (100%)

Chain of hD2L receptors (P14416 whole entry): as above

| SMILES | Emax (hD2L receptors; [1]) [%] | Emax (D2L receptors) [%] | Emax (hD2L receptors; read-out: cAMP Emax (%)) [%] | EC50 (D2L receptors; Tango assay) [nM] | further results |
| --- | --- | --- | --- | --- | --- |
| CCc1nc2cc(OCCCCN3CCN(c4cccc5c4OCCO5)CC3)ccc2s1 [Compound 52, 5-(4-(4-(2,3-Dihydrobenzo[b][1,4]dioxin-5-yl)piperazin-1-yl)butoxy)-2-ethylbenzo[d]thiazole] | – | – | – | – | activity in Gi/o signaling (in words) (hD2L receptors): inactive; activity in β-arrestin recruitment (in words) (D2L receptors; Tango assay): inactive |
| CCc1nc2cc(OCCCCN3CCN(c4cccc5ccc(C)nc45)CC3)ccc2s1 [Compound 48, 2-Ethyl-5-(4-(4-(2-methylquinolin-8-yl)piperazin-1-yl)butoxy)benzo[d]thiazole] | 33 | < 20 | – | – | – |
| CC(C)c1nc2cc(OCCCCN3CCN(c4cccc(Cl)c4Cl)CC3)ccc2s1 [Compound 19, 5-(4-(4-(2,3-Dichlorophenyl)piperazin-1-yl)butoxy)-2-isopropylbenzo[d]thiazole] | 33 | < 20 | – | – | – |
| CNc1nc2cc(OCCCCN3CCN(c4cccc5c4OCCO5)CC3)ccc2s1 [Compound 57, 5-(4-(4-(2,3-Dihydrobenzo[b][1,4]dioxin-5-yl)piperazin-1-yl)butoxy)-N-methylbenzo[d]thiazol-2-amine] | – | – | – | – | activity in Gi/o signaling (in words) (hD2L receptors): inactive; activity in β-arrestin recruitment (in words) (D2L receptors; Tango assay): inactive |
| Cc1nc2cc(OCCCCN3CCN(c4cccc(-c5ccccc5)c4C)CC3)ccc2s1 [Compound 44, 2-Methyl-5-(4-(4-(2-methyl-[1,1'-biphenyl]-3-yl)piperazin-1-yl)butoxy)benzo[d]thiazole] | – | – | – | – | activity in Gi/o signaling (in words) (hD2L receptors): completely inactive; activity in β-arrestin recruitment (in words) (D2L receptors; Tango assay): completely inactive |
| Cc1nc2cc(OCCCCN3CCN(c4cccc5c4OCCO5)CC3)ccc2s1 [Compound 40, 5-(4-(4-(2,3-Dihydrobenzo[b][1,4]dioxin-5-yl)piperazin-1-yl)butoxy)-2-methylbenzo[d]thiazole] | – | – | 50 | 3.6 | – |
| CC(C)c1nc2cc(OCCCCN3CCC(c4cccc(Cl)c4Cl)CC3)ccc2s1 [Compound 47, 5-(4-(4-(2,3-Dichlorophenyl)piperidin-1-yl)butoxy)-2-isopropylbenzo[d]thiazole] | 33 | < 20 | – | – | – |
| Cc1ccc2cccc(N3CCN(CCCCOc4ccc5sc(C)nc5c4)CC3)c2n1 [Compound 36, 2-Methyl-5-(4-(4-(2-methylquinolin-8-yl)piperazin-1-yl)butoxy)benzo[d]thiazole] | – | < 20 | 25 | – | – |
| Cc1nc2cc(OCCCCN3CCC(c4cccc(Cl)c4Cl)CC3)ccc2s1 [Compound 30, 5-(4-(4-(2,3-Dichlorophenyl)piperidin-1-yl)butoxy)-2-methylbenzo[d]thiazole] | – | 31 | 66 | 49 | – |
| CC(C)c1nc2cc(OCCCCN3CCN(c4cccc5c4OCCN5)CC3)ccc2s1 [Compound 51, 8-(4-(4-((2-Isopropylbenzo[d]thiazol-5-yl)oxy)butyl)piperazin-1-yl)-3,4-dihydro-2H-benzo[b][1,4]oxazine] | 48 | – | – | – | – |
| Cc1nc2ccc(OCCCCN3CCN(c4cccc(Cl)c4Cl)CC3)cc2s1 [Compound 3, 6-(4-(4-(2,3-Dichlorophenyl)piperazin-1-yl)butoxy)-2-methylbenzo[d]thiazole] | – | 22 | 42 | 76 | decrease of potency in Gi/o pathway compared to compound 1 (hD2L receptors): 2 fold; decrease of potency in β-arrestin recruitment compared to compound 1 (D2L receptors; Tango assay): 5 fold |
| Cc1nc2ccc(OCCCCN3CCC(c4cccc(Cl)c4Cl)CC3)cc2s1 [Compound 58, 6-(4-(4-(2,3-Dichlorophenyl)piperidin-1-yl)butoxy)-2-methylbenzo[d]thiazole] | 56 | 24 | – | 460 | – |
| COc1ccccc1N1CCN(CCCCOc2ccc3sc(C)nc3c2)CC1 [Compound 32, 5-(4-(4-(2-Methoxyphenyl)piperazin-1-yl)butoxy)-2-methylbenzo[d]thiazole] | – | 25 | 61 | 8.5 | decrease of potency in Gi/o pathway compared to compound 1 (hD2L receptors): around 5 fold |
| O=c1[nH]c2cc(OCCCCN3CCN(c4cccc(Cl)c4Cl)CC3)ccc2s1 [Compound 7, 5-(4-(4-(2,3-Dichlorophenyl)piperazin-1-yl)butoxy)benzo[d]thiazol-2(3H)-one] | – | 59 | 67 | 2.6 | – |
| Cc1nc2cc(OCCCCN3CCN(c4cccc5[nH]c(=O)oc45)CC3)ccc2s1 [Compound 45, 7-(4-(4-((2-Methylbenzo[d]thiazol-5-yl)oxy)butyl)piperazin-1-yl)benzo[d]oxazol-2(3H)-one] | – | 88 | 90 | 0.36 | – |
| FC(F)(F)c1nc2cc(OCCCCN3CCN(c4cccc(Cl)c4Cl)CC3)ccc2s1 [Compound 11, 5-(4-(4-(2,3-Dichlorophenyl)piperazin-1-yl)butoxy)-2-(trifluoromethyl)benzo[d]thiazole] | – | 40 | – | – | – |
| Cc1nc2cc(OCCCN3CCN(c4cccc(Cl)c4Cl)CC3)ccc2s1 [Compound 2, 5-(3-(4-(2,3-Dichlorophenyl)piperazin-1-yl)propoxy)-2-methylbenzo[d]thiazole] | – | – | – | – | D2R agonist profile in β-arrestin and Gi/o pathways (hD2L receptors; compared with β-arrestin recruitment Tango assay): balanced D2R agonist |
| Cc1nc2cc(OCCCCN3CCN(c4cccc5c4OCCN5)CC3)ccc2s1 [Compound 39, 8-(4-(4-((2-Methylbenzo[d]thiazol-5-yl)oxy)butyl)piperazin-1-yl)-3,4-dihydro-2H-benzo[b][1,4]oxazine] | – | < 20 | 29 | – | activity in β-arrestin recruitment (in words) (D2L receptors; Tango assay): did not recruit β-arrestin at all |
| Cc1nc2cc(OCCCCN3CCCN(c4cccc(Cl)c4Cl)CC3)ccc2s1 [Compound 31, 5-(4-(4-(2,3-Dichlorophenyl)-1,4-diazepan-1-yl)butoxy)-2-methylbenzo[d]thiazole] | – | < 20 | 22 | – | activity in β-arrestin recruitment (in words) (D2L receptors; Tango assay): inactive |
| CCc1nc2cc(OCCCCN3CCN(c4cccc(Cl)c4Cl)CC3)ccc2s1 [Compound 18, 5-(4-(4-(2,3-Dichlorophenyl)piperazin-1-yl)butoxy)-2-ethylbenzo[d]thiazole] | 43 | < 20 | – | – | – |
| Clc1nc2cc(OCCCCN3CCN(c4cccc(Cl)c4Cl)CC3)ccc2s1 [Compound 6, 2-Chloro-5-(4-(4-(2,3-dichlorophenyl)piperazin-1-yl)butoxy)benzo[d]thiazole] | 50 | 40 | – | 48 | – |
| CCc1nc2cc(OCCCCN3CCN(c4cccc5c4OCCN5)CC3)ccc2s1 [Compound 50, 8-(4-(4-((2-Ethylbenzo[d]thiazol-5-yl)oxy)butyl)piperazin-1-yl)-3,4-dihydro-2H-benzo[b][1,4]oxazine] | – | 33 | – | 6.4 | – |
| Cc1nc2cc(OCCCCN3CCN(c4cccc(Cl)c4Cl)[C@@H](C)C3)ccc2s1 [Compound 34, (S)-5-(4-(4-(2,3-Dichlorophenyl)-3-methylpiperazin-1-yl)butoxy)-2-methylbenzo[d]thiazole] | – | – | – | – | activity in Gi/o signaling (in words) (hD2L receptors): no appreciable activity; activity in β-arrestin recruitment (in words) (D2L receptors; Tango assay): no appreciable activity |
| CN(C)c1nc2cc(OCCCCN3CCN(c4cccc(Cl)c4Cl)CC3)ccc2s1 [Compound 25, 5-(4-(4-(2,3-Dichlorophenyl)piperazin-1-yl)butoxy)-N,N-dimethylbenzo[d]thiazol-2-amine] | – | – | – | – | activity in Gi/o signaling (in words) (hD2L receptors): did not show any activity; activity in β-arrestin recruitment (in words) (D2L receptors; Tango assay): did not show any activity |
| CNc1nc2cc(OCCCCN3CCN(c4cccc5c4OCCN5)CC3)ccc2s1 [Compound 56, 5-(4-(4-(3,4-Dihydro-2H-benzo[b][1,4]oxazin-8-yl)piperazin-1-yl)butoxy)-N-methylbenzo[d]thiazol-2-amine] | 49 | 29 | – | 6.5 | – |
